Results on eleven molecules are retold here after ChEMBL document CHEMBL3745700, “Functionalised isocoumarins as antifungal compounds: Synthesis and biological studies” (Bioorg Med Chem Lett, 2016).

≈ marks a conversion by molar mass, not a printed value. Calls of active or inactive are those of the source. The rule behind the calls is not given here. Bounds are passed on as bounds.

The test system of series [1] is Candida albicans. Description: Antifungal activity against Candida albicans ATCC 10231 assessed as inhibition of hyphal formation at MIC70 after 36 hrs by microscopic analysis. The series is classed as functional, organism-based.
A further series deals with MRC5. Description: Cytotoxicity against human MRC5 cells after 48 hrs by MTT assay. The series is classed as cell-based. The settings on record: MRC5, 48 h. A general note: Tetrazolium assays rely on reduction of a dye to a coloured formazan, in cell work by metabolically active cells.
The test system of series [2] is Candida albicans. Nature of the series: Antifungal activity against Candida albicans ATCC 10231 by broth microdilution method. It is filed as functional. (In general: Dilution methods test growth across graded concentrations, often in twofold steps.)
A further series deals with Pichia kudriavzevii. Description: Antifungal activity against azole-resistant Candida krusei ATCC 6258 by broth microdilution method. It is filed as functional.
In another series the test system is Candida parapsilosis. Description: Antifungal activity against azole-resistant Candida parapsilosis CA-27 clinical isolate by broth microdilution method. The series is classed as functional.
The test system of series [3] is Candida albicans. Nature of the series: Stimulation of hyphal formation in Candida albicans ATCC 10231 at MIC70 after 36 hrs by microscopic analysis. It is filed as functional, organism-based.
For series [4], the system named is Candida albicans. Nature of the series: Antifungal activity against Candida albicans ATCC 10231 assessed as inhibition of biofilm formation at MIC70 after 48 hrs by propidium iodide/Concanavaline A-FITC staining-based fluorescence microscopic analysis. It is filed as functional, organism-based.
The test system of series [5] is Candida albicans. Description: Binding affinity to Candida albicans ATCC 10231 DNA assessed as degradation at 25 ug/ml after 12 hrs by agarose gel electrophoresis.
Series [6] can be described thus: Hemolytic activity in Sheep RBC at MIC and IC50 after 1 hr by multiplate reader analysis. The series is classed as ADME, cell-based, Ovis aries. To be noted: erythrocyte.
Series [7] deals with Candida albicans. Nature of the series: Antifungal activity against Candida albicans ATCC 10231 assessed as growth inhibition at 250 ug/disc by disc diffusion method. It is filed as functional, organism-based.

Turning to `C[C@@H](c1ncncc1F)[C@](O)(Cn1cncn1)c1ccc(F)cc1F` [VORICONAZOLE], in the series with Candida albicans [1], the inhibition result is “Active”. The half-inhibitory concentration (IC50) in the series with MRC5 was 40 µg/mL (≈ 115 µM). In the series with Candida albicans [2], this molecule registered a minimal inhibitory concentration (MIC) of 7.8 µg/mL (≈ 22.3 µM). Also, the MIC result in the series with Pichia kudriavzevii and in the series with Candida parapsilosis was “inactive” in each case.
With `CCOC(=O)c1cn(-c2cc3ccccc3c(=O)o2)cn1`, half-maximal inhibition in the series on MRC5 (IC50) required 25 µg/mL (≈ 87.9 µM). Moreover, the MIC in the series on Candida albicans [2] was 62.5 µg/mL (≈ 220 µM); against Pichia kudriavzevii it was above 500 µg/mL; in the series with Candida parapsilosis (Lodderomyces parapsilosis) it was above 500 µg/mL. Moreover, the outcome in the series on Candida albicans [3] was Active. In the series on Candida albicans [4], the inhibition entry was “Active”.
Take `O=c1oc(-n2cnnn2)cc2ccccc12`: the inhibition result in the series on Candida albicans [1] was “Active”. The same molecule showed an IC50 in the series with MRC5 of 10 µg/mL (≈ 46.7 µM). Further, the figures for the MIC with Candida albicans [2], in the series on Pichia kudriavzevii and in the series with Candida parapsilosis (Lodderomyces parapsilosis) were 15.6 µg/mL (≈ 72.8 µM), 62.5 µg/mL (≈ 292 µM) and 125 µg/mL (≈ 584 µM), respectively. The result in the series on Candida albicans [5] was inactive. The Activity result in series [6] was “Non-toxic”.
`O=c1oc(-n2cncn2)cc2ccccc12`: the inhibition entry with Candida albicans [1] and with Candida albicans [4] was “Active” in each case. In the series on MRC5, this molecule showed a half-inhibitory concentration (IC50) of 40 µg/mL (≈ 188 µM). Moreover, the values for the MIC against Candida albicans [2], in the series with Pichia kudriavzevii and in the series on Candida parapsilosis (Lodderomyces parapsilosis) were 20 µg/mL (≈ 93.8 µM), 125 µg/mL (≈ 586 µM) and above 500 µg/mL, respectively. Further, the outcome in the series with Candida albicans [5] was inactive. Besides, the Activity entry in series [6] is reported as “Non-toxic”.
In the case of `C[Si](C)(C)C#Cc1cc2ccccc2c(=O)o1`, the “growth inhibition (GI)” value with Candida albicans [7] is “Active”. The same molecule displayed a 50% inhibitory concentration (IC50) in the series with MRC5 of 30 µg/mL (≈ 124 µM). In addition, in the series on Candida albicans [2], the minimal inhibitory concentration (MIC) stood at 250 µg/mL (≈ 1030 µM). Besides, the result in the series on Candida albicans [3] was Active. In addition, the result in the series on Candida albicans [5] was inactive. Also, the Activity result in [6] was “Non-toxic”.
In turn, `O=c1oc(-n2c(C(F)(F)F)nc3ccccc32)cc2ccccc12` yielded an IC50 in the series with MRC5 of 15 µg/mL (≈ 45.4 µM). The molecule further showed an MIC against Candida albicans [2] of 150 µg/mL (≈ 454 µM). In addition, in the series on Candida albicans [3], the outcome was Active.
For the molecule `O=c1oc(Br)cc2ccccc12`, the “growth inhibition (GI)” value in the series on Candida albicans [7] was “Active”. The inhibition result in the series with Candida albicans [1] was “Active”. This molecule also showed an IC50 with MRC5 of 20 µg/mL (≈ 88.9 µM). In addition, the MIC in the series with Candida albicans [2] stood at 15.6 µg/mL (≈ 69.3 µM); against Pichia kudriavzevii, 3.9 µg/mL (≈ 17.3 µM); in the series on Candida parapsilosis (Lodderomyces parapsilosis), 62.5 µg/mL (≈ 278 µM). In addition, the result in the series on Candida albicans [5] was inactive. The Activity entry in [6] was “Non-toxic”.
For `O=c1oc(-n2cccn2)cc2ccccc12`, in the series with Candida albicans [1], the inhibition entry was “Active”. The molecule also came in with an IC50 in the series on MRC5 of 30 µg/mL (≈ 141 µM). In addition, the MIC was 31.2 µg/mL (≈ 147 µM) in the series with Candida albicans [2], above 500 µg/mL in the series on Pichia kudriavzevii and above 500 µg/mL in the series on Candida parapsilosis (Lodderomyces parapsilosis). For the same molecule, the outcome with Candida albicans [5] was inactive. Also, in series [6], the Activity entry is recorded as “Non-toxic”.
Consider `O=c1oc(-n2cc(Cl)cn2)cc2ccccc12`, for which, in the series on Candida albicans [1], the inhibition entry is “Active”. This molecule also displayed a half-maximal inhibitory concentration (IC50) with MRC5 of 15 µg/mL (≈ 60.8 µM). Besides, the figures for the MIC in the series with Candida albicans [2], in the series with Pichia kudriavzevii and in the series with Candida parapsilosis (Lodderomyces parapsilosis) were 5 µg/mL (≈ 20.3 µM), 125 µg/mL (≈ 507 µM) and above 500 µg/mL, respectively. Further, in series [6], the Activity entry was “Non-toxic”.
`O=c1oc(-n2ccnc2)cc2ccccc12`: the inhibition entry in the series on Candida albicans [1] was “Active”. Besides, in the series with MRC5, the IC50 was 25 µg/mL (≈ 118 µM). In addition, the MIC against Candida albicans [2] is 62.5 µg/mL (≈ 295 µM). Moreover, in the series with Candida albicans [5], the outcome was inactive. In addition, the Activity result in series [6] is given as “Non-toxic”.
`COC(=O)/C=C/c1cc2ccccc2c(=O)o1`: the “growth inhibition (GI)” value in the series on Candida albicans [7] is “Active”. The inhibition entry with Candida albicans [1] is “Active”. In the series on MRC5, this molecule came in with an IC50 of 30 µg/mL (≈ 130 µM). In the series with Candida albicans [2], this molecule had a minimal inhibitory concentration (MIC) of 500 µg/mL (≈ 2170 µM). The outcome with Candida albicans [5] was inactive. Moreover, the Activity result in series [6] was “Non-toxic”.

In general, IC50 refers to the concentration needed to halve the response being measured. Low readings indicate higher potency, high ones lower potency. Usually MIC stands for the lowest concentration found to suppress growth.
